What all share (test): biochemical
In test [1] the target is MST4 (Homo sapiens, UniProt Q9P289). The conditions noted are these: 10 µM; binder.
The target in test [2] is T1, MST2 (Homo sapiens, UniProt Q13188).
T1 sequence (Q13188 1-491): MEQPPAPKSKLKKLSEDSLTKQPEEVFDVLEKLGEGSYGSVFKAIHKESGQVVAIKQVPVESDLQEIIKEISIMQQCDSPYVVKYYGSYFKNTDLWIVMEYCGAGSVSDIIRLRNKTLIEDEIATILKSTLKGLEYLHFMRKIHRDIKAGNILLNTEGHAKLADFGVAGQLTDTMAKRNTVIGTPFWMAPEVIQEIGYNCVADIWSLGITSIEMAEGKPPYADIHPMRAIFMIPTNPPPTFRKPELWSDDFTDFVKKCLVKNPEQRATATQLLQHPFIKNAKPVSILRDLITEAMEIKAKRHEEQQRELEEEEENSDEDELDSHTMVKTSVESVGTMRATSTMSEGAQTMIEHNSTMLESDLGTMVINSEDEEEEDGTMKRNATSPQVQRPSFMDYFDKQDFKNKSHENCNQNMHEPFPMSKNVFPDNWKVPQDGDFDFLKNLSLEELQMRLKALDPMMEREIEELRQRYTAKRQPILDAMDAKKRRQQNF
The conditions noted are these: 10 µM; binder.

Test [3] has as its target T2, MST1 (Homo sapiens, UniProt Q13043).
T2 sequence (Q13043 1-487): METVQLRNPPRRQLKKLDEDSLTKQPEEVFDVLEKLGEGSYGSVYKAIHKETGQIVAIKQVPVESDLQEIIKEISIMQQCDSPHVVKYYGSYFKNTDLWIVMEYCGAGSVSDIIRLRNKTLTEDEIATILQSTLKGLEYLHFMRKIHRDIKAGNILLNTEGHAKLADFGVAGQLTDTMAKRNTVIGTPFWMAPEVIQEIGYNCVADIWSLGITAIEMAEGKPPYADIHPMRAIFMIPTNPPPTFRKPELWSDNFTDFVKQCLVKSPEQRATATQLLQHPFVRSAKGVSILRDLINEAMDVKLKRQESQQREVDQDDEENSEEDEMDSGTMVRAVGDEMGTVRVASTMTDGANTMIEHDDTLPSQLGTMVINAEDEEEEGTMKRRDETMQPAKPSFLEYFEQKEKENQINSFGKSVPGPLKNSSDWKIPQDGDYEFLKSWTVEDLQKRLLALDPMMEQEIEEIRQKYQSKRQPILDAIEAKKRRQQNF

Sequence of MST4 (Q9P289 whole entry): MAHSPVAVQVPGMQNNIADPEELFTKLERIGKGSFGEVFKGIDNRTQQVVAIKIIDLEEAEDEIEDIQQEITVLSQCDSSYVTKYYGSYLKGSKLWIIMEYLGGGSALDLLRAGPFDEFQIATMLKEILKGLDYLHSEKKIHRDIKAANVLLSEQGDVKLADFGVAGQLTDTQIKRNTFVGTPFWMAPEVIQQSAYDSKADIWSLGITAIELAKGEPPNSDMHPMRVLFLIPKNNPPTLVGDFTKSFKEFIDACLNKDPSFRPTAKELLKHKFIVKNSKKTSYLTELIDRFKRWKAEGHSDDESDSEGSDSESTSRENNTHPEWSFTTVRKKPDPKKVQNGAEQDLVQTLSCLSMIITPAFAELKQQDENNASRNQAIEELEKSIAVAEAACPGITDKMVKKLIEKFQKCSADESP

Consider `CNc1ncc2cc(-c3ccc(-c4ncccc4F)cc3Cl)c(=O)n(C[C@H]3OC[C@H](N)CO3)c2n1` [compound 1, MRIA9], for which the “dTm MST4” value in test [1] worked out at 2.7 °C. In addition, the “dTm MST2” value in test [2] worked out at 2.5 °C. In test [3] (10 µM, binder), the “dTm MST1” value came out at 1.8 °C.

For the compound `CN[C@@H]1C[C@H]2O[C@@](C)([C@@H]1OC)n1c3ccccc3c3c4c(c5c6ccccc6n2c5c31)C(=O)NC4` [Staurosporine], in test [3] (read-out: dTm MST1), the ΔTm at 10 µM is 13.9 °C.
